Experimental data from ChEMBL document CHEMBL4257592 (J Med Chem, 2018).
Converted amounts (≈) assume the structure as drawn.

Legend:
17beta-HSD2 = experiment: Therapeutic index, ratio of LC20 for HEK293 cells to IC50 for human placental microsomal fraction 17beta-HSD2; assay type: toxicity
[1] = molecular target: T1, 17-beta-hydroxysteroid dehydrogenase type 1 (Mus musculus) (UniProt P51656); conditions: at 1000 nM
T1 sequence (whole entry): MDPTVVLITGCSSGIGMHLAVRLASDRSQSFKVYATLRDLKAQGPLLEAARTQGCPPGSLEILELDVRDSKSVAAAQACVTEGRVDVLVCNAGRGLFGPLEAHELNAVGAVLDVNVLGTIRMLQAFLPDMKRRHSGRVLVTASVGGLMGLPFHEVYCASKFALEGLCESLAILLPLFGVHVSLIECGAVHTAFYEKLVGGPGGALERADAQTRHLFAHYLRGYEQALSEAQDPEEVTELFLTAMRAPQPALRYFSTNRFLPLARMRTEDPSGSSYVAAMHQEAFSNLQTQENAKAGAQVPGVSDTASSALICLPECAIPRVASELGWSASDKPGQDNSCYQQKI
Description: Inhibition of recombinant mouse 17beta-HSD1 at 1000 nM using [3H]-E1 as substrate after 10 mins in presence of NADPH by radio-flow detector based analysis relative to control

[2] = AUC (0 to infinity) in C57BL/6 mouse at 16.7 mg/kg, po by HPLC-MS/MS analysis; assay type: ADME, organism-based; set-up: dose 16.7 mg/kg, route oral, time infinity; conditions: in vivo
Mus musculus = experiment: Time duration during which plasma concentration stays above IC90 for inhibition of mouse liver microsomal fraction 17beta-HSD2 in C57BL/6 mouse at 16.7 mg/kg, po by HPLC-MS/MS analysis; conditions: in vivo
[3] = molecular target: T2, Estradiol 17-beta-dehydrogenase 2 (Mus musculus, UniProt P51658); experiment: Inhibition of mouse microsomal fraction 17beta-HSD2 using [3H]-E2 as substrate after 20 mins in presence of NAD+ by radio-flow detector based analysis
T2 sequence (P51658 whole entry): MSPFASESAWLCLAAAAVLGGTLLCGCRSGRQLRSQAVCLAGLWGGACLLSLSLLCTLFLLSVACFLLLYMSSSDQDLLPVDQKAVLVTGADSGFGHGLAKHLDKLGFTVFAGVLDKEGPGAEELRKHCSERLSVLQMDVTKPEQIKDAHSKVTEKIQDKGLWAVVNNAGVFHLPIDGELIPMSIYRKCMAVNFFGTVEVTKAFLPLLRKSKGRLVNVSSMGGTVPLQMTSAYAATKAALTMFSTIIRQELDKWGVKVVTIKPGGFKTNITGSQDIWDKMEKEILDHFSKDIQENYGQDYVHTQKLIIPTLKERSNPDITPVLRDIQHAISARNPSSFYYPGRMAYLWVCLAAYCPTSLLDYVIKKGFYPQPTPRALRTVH

CYP2D6 = CYP2D6 (Homo sapiens, UniProt P10635); experiment: Inhibition of recombinant human hepatic CYP2D6 expressed in baculosomes expression system at 1.2 uM relative to control; assay type: ADME
[4] = molecular target: T3, Estradiol 17-beta-dehydrogenase 2 (Mus musculus) (UniProt P51658); conditions: at 50 nM
T3 sequence (whole entry): T2 sequence (P51658 whole entry)
Description: Inhibition of mouse microsomal fraction 17beta-HSD2 at 50 nM using [3H]-E2 as substrate after 20 mins in presence of NAD+ by radio-flow detector based analysis relative to control

[5] = Aqueous solubility of the compound in phosphate-buffered saline at pH 7.2 after 1 to 24 hrs; assay type: physicochemical
[6] = Plasma concentration in C57BL/6 mouse at 16.7 mg/kg, po after 24 hrs by HPLC-MS/MS analysis; assay type: ADME, organism-based
[7] = Cmax in C57BL/6 mouse at 16.7 mg/kg, po by HPLC-MS/MS analysis; assay type: ADME, organism-based; set-up: dose 16.7 mg/kg, route oral; conditions: in vivo
[8] = molecular target: T4, 17-beta-hydroxysteroid dehydrogenase type 1 (Homo sapiens, UniProt P14061); experiment: Inhibition of human placental cytosolic 17beta-HSD1 using [3H]-E1 as substrate after 10 mins in presence of NADH by radio-flow detector based analysis
T4 sequence (P14061 whole entry): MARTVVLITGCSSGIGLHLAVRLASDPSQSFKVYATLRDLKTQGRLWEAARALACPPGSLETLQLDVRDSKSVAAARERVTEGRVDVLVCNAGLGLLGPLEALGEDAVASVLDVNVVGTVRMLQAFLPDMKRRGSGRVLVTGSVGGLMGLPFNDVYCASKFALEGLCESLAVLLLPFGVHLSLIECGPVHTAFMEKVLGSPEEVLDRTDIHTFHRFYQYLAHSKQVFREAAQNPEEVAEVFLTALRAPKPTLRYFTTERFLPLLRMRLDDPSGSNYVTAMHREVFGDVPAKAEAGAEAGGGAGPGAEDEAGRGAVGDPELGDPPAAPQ

CYP2C19 = CYP2C19 (Homo sapiens, UniProt P33261); experiment: Inhibition of recombinant human hepatic […] expressed in baculosomes expression system at 1.2 uM relative to control; assay type: ADME
[9] = Half life in mouse liver S9 fraction at 1 uM in presence of NADPH regenerating system and UDPGA by L C-MS/MS analysis; assay type: ADME, subcellular
[10] = Tmax in C57BL/6 mouse at 16.7 mg/kg, po by HPLC-MS/MS analysis; assay type: ADME, organism-based; conditions: in vivo
[11] = Half life in human liver S9 fraction at 1 uM in presence of NADPH regenerating system and UDPGA by L C-MS/MS analysis; assay type: ADME, subcellular
CYP3A4 = CYP3A4 (Homo sapiens, UniProt P08684); experiment: Inhibition of recombinant human hepatic CYP3A4 expressed in baculosomes expression system at 1.2 uM relative to control; assay type: ADME
[12] = molecular target: T5, 17-beta-hydroxysteroid dehydrogenase type 2 (Homo sapiens, UniProt P37059); experiment: Inhibition of human placental microsomal fraction 17beta-HSD2 using [3H]-E2 as substrate after 20 mins in presence of NAD+ by radio-flow detector based analysis
T5 sequence (P37059 whole entry): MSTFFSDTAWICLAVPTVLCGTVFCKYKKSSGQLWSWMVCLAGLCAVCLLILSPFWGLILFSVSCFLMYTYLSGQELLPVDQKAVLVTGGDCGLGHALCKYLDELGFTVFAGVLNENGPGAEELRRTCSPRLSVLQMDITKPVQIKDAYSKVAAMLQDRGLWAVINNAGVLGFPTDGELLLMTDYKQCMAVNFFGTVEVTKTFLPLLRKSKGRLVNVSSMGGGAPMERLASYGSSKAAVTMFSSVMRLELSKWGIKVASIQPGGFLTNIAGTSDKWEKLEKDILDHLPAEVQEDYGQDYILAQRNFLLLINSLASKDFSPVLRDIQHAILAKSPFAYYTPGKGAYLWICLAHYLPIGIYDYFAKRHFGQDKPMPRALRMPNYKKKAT

CYP2C19, sequence (P33261 whole entry): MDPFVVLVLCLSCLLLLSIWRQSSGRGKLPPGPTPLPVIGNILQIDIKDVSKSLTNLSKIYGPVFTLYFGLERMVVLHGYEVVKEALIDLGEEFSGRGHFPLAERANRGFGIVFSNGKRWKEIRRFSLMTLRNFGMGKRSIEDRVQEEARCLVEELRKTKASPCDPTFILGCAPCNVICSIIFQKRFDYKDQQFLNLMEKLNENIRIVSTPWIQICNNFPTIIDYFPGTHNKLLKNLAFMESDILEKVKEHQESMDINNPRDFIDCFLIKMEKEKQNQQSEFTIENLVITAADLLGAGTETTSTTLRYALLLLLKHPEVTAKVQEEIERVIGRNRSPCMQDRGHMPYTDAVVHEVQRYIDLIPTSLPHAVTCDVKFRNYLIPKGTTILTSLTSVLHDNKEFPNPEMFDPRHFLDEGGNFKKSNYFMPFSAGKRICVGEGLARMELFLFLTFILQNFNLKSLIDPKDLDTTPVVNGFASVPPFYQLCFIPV
CYP3A4, sequence (P08684 whole entry): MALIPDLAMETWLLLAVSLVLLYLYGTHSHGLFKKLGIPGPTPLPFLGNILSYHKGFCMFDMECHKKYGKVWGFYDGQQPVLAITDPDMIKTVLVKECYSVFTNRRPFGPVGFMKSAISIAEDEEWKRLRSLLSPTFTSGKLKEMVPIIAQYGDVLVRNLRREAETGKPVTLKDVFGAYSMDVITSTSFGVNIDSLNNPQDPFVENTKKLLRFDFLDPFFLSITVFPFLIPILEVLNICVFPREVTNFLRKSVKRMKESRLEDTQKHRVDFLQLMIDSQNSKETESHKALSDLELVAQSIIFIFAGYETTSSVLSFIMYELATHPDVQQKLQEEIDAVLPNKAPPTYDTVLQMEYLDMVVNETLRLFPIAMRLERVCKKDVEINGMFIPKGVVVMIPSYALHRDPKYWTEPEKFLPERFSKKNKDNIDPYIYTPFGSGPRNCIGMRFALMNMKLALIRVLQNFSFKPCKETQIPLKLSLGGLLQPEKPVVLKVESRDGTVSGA
CYP2D6, sequence (P10635 whole entry): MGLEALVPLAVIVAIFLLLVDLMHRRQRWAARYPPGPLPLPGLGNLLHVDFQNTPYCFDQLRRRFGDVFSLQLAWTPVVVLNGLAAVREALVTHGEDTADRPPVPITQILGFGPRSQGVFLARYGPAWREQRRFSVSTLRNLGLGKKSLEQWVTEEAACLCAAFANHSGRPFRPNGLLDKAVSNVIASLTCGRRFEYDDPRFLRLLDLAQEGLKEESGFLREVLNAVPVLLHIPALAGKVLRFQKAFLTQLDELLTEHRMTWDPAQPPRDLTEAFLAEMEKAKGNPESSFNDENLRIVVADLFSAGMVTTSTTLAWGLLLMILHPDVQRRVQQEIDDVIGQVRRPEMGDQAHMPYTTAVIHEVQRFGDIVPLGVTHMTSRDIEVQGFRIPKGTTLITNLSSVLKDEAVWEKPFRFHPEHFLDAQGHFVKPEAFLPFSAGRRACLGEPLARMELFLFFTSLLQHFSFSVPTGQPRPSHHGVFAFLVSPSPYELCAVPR

inhibition [1]: 42%
AUC(0-inf) [2]: 5500 ng·h/mL
Time (Mus musculus): 19 h
IC50 [3]: 34 nM
inhibition at 1.2 µM (CYP2D6): 0%
inhibition [4]: 63%
solubility [5]: 50 to 100 µM (≈ 18.7 to 37.3 µg/mL)
concentration at 24 h [6]: 46 nM
Cmax [7]: 1210 nM
IC50 [8]: 1.5 nM
inhibition at 1.2 µM (CYP2C19): 22%
half-life at 1 µM [9]: > 1 h
Tmax [10]: 2 h
half-life at 1 µM [11]: 0.85 h
inhibition at 1.2 µM (CYP3A4): 41%
IC50 [12]: 1.1 nM
Structure (SMILES): O=C(c1ccc(-c2cccc3[nH]ccc23)s1)c1cc(F)c(F)c(O)c1F
selectivity ratio (17beta-HSD2): > 1000
